Experimental data from ChEMBL document CHEMBL3714751, “Diaminopyrimidines as P2X3 and P2X2/3 modulators” (2009).
Activity calls are given as the source filed them. The calls are words filed in the database; no cut-off is given here.

Test system: Canis familiaris
Assay: Cmax in dog assessed as 5-(5-Iodo-2-iso-propyl-4-methoxy-phenoxy)-pyrimidine-2,4-diamine level at 0.127 mmol administered orally by gavage after 24 hrs by HPLC method
Assay type: ADME, organism-based, Canis lupus familiaris
Set-up: dose 0.127 mmol, route oral
Settings: in vivo, po

| Cmax | Structure (SMILES) |
| --- | --- |
| 120 ng/mL | CCCN(CCC)CC(=O)Nc1ncc(Oc2cc(I)c(OC)cc2C(C)C)c(N)n1 |

Test system: Canis familiaris
Assay: AUC in dog assessed as 5-(5-Iodo-2-iso-propyl-4-methoxy-phenoxy)-pyrimidine-2,4-diamine level at 0.127 mmol administered orally by gavage after 24 hrs by HPLC method
Assay type: ADME, organism-based, Canis lupus familiaris
Set-up: dose 0.127 mmol, time < 24 hr, route oral
Settings: in vivo, po

| AUC | Structure (SMILES) |
| --- | --- |
| 372 ng·h/mL | CCCN(CCC)CC(=O)Nc1ncc(Oc2cc(I)c(OC)cc2C(C)C)c(N)n1 |

Molecular target: T1, P2X purinoceptor 3 (Rattus norvegicus) (UniProt P49654)
T1 sequence (whole entry): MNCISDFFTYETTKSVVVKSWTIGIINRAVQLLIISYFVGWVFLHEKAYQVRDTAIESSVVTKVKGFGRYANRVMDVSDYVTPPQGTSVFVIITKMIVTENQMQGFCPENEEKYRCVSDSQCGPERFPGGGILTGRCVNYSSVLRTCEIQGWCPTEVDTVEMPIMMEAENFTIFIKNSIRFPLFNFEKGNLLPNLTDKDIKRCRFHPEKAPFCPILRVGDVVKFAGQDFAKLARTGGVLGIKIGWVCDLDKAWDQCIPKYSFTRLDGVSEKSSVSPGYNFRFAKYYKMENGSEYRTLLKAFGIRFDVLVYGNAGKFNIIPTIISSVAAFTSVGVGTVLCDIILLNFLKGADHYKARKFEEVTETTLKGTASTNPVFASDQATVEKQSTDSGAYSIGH
Assay: Antagonist activity against rat P2X3 receptor expressed in CHOK1 cells assessed as inhibition of alpha,beta-meATP-induced calcium response incubated for 20 mins by Fluo-3AM dye based FLIPR assay
Assay type: functional, cell-based
Settings: CHO-K1

| inhibition | Structure (SMILES) |
| --- | --- |
| Active | C#Cc1cc(Oc2cnc(NC(=O)CN3CCN(C)CC3)nc2N)c(C(C)C)cc1OC |
| Active | COc1cc(C(C)C)c(Oc2cnc(NC(=O)CN(C)C3CCCCC3)nc2N)cc1I |
| Active | COc1cc(C(C)C)c(Oc2cnc(NC(=O)CN(C)C)nc2N)cc1I |
| Active | COc1cc(C(C)C)c(Oc2cnc(NC(=O)CNC3CCN(C)CC3)nc2N)cc1I |
| Active | CCC(CC)NCC(=O)Nc1ncc(Oc2cc(I)c(OC)cc2C(C)C)c(N)n1 |
| Active | COc1cc(C(C)C)c(Oc2cnc(NC(=O)CNC3CCCCC3)nc2N)cc1I |
| Active | COc1cc(C(C)C)c(Oc2cnc(NC(=O)CN3CC(C)OC(C)C3)nc2N)cc1I (stereo not drawn) |
| Active | COc1cc(C(C)C)c(Oc2cnc(NC(=O)CNC3CCC(C)CC3)nc2N)cc1I (stereo not drawn) |
| Active | COc1cc(C(C)C)c(Oc2cnc(NC(=O)CN3CCC(C(C)=O)CC3)nc2N)cc1I |
| Active | COc1cc(C(C)C)c(Oc2cnc(NC(=O)CN3CCCCC3)nc2N)cc1I |
| Active | COc1cc(C(C)C)c(Oc2cnc(NC(=O)CN3CCN(CCO)CC3)nc2N)cc1I |

The remaining lines, values behind:

| Structure (SMILES) | inhibition |
| --- | --- |
| COc1cc(C(C)C)c(Oc2cnc(NC(=O)CNC3CCCC3)nc2N)cc1I | Active |
| COc1cc(C(C)C)c(Oc2cnc(NC(=O)CNCC3CC3)nc2N)cc1I | Active |
| CCN(CCCCO)CC(=O)Nc1ncc(Oc2cc(I)c(OC)cc2C(C)C)c(N)n1 | Active |
| COc1cc(C(C)C)c(Oc2cnc(NC(=O)CN3CCOCC3)nc2N)cc1I | Active |
| COc1cc(C(C)C)c(Oc2cnc(NC(=O)CN3CCN(C)CC3)nc2N)cc1I | Active |
| COc1cc(C(C)C)c(Oc2cnc(NC(=O)CNC(C)(C)C)nc2N)cc1I | Active |
| COCCNCC(=O)Nc1ncc(Oc2cc(I)c(OC)cc2C(C)C)c(N)n1 | Active |
| CCCNCC(=O)Nc1ncc(Oc2cc(I)c(OC)cc2C(C)C)c(N)n1 | Active |
| COc1cc(C(C)C)c(Oc2cnc(NC(=O)CN3CCNCC3)nc2N)cc1I | Active |
| CCCN(CCC)CC(=O)Nc1ncc(Oc2cc(I)c(OC)cc2C(C)C)c(N)n1 | Active |
| COc1cc(C(C)C)c(Oc2cnc(NC(=O)CN3CCN(CCCO)CC3)nc2N)cc1I | Active |
| COc1cc(C(C)C)c(Oc2cnc(NC(=O)CNC3CCC3)nc2N)cc1I | Active |
| COc1cc(C(C)C)c(Oc2cnc(NC(=O)CN3CCCC3)nc2N)cc1I | Active |
| COc1cc(C(C)C)c(Oc2cnc(NC(=O)CN3CCC(N)CC3)nc2N)cc1I | Active |
| COc1cc(C(C)C)c(Oc2cnc(NC(=O)CNCC(C)C)nc2N)cc1I | Active |
